Assay results as given in ChEMBL document CHEMBL5113404, “Design, synthesis and biological evaluation of new parbendazole derivatives for the treatment of HNSCC” (Eur J Med Chem, 2022).
Calls of active or inactive are those of the source. The rule behind the calls is not given here.

Experiments:
[1] = Induction of apoptosis in human HN-6 cells assessed as necrotic cells at 0.1 micromol/L incubated for 24 hrs by Annexin-V/FITC-PI staining based flow cytometry analysis (reference value: 2.08%); assay type: functional; conditions: dose 0.1 µmol/L, at 0.1 µM
[2] = Induction of apoptosis in human HN-6 cells assessed as early apoptotic cells at 1 micromol/L incubated for 24 hrs by Annexin-V/FITC-PI staining based flow cytometry analysis (reference value: 2.04%); assay type: functional; conditions: dose 1 µmol/L, at 1 µM
[3] = Acute toxicity in Kunming mouse assessed as lethargy at 631 mg/kg,IG after 6 hrs of administration; assay type: organism-based; conditions: in vivo, po
[4] = Half life in rat at 100 mg/kg,IG measured upto 24 hrs by HPLC analysis; assay type: ADME, organism-based; conditions: in vivo, po
[5] = Acute toxicity in Kunming mouse assessed as weakness at 631 mg/kg,IG after 6 hrs of administration; assay type: organism-based; conditions: in vivo, po
[6] = molecular target: Tubulin (Homo sapiens) (UniProt P68371+Q9H4B7+P0DPH7+P68366+Q13509+Q71U36+P04350+Q3ZCM7+P07437+P68363+Q9BQE3+Q6PEY2+Q13885+Q9BVA1+Q9BUF5); assay: Inhibition of tubulin polymerization (unknown origin) at 20 micromol/L by fluorescence based analysis; assay type: protein-complex assay; conditions: dose 20.0 µmol/L
[7] = Acute toxicity in Kunming mouse assessed as death at 398 mg/kg,IG after 15 days of administration; assay type: organism-based; conditions: in vivo, po, 360 h, time 15 day
[8] = Induction of apoptosis in human HN-6 cells assessed as viable cells at 1 micromol/L incubated for 24 hrs by Annexin-V/FITC-PI staining based flow cytometry analysis (reference value: 97.26%); assay type: functional; conditions: HN-6, 24 h, dose 1 µmol/L, read-out: Activity
[9] = Acute toxicity in Kunming mouse assessed as lethargy at 1 g/Kg,IG after 2 hrs of administration; conditions: in vivo, po, 1000 mg/kg
[10] = system: Mus musculus; assay: Antitumor activity against human HN-6 cells xenografted in mouse serum assessed as reduction on SCCAg level at 80 mg/kg,IG administered daily for 2 weeks by ELISA; assay type: functional, organism-based
[11] = Induction of apoptosis in human HN-6 cells assessed as viable cells at 0.1 micromol/L incubated for 24 hrs by Annexin-V/FITC-PI staining based flow cytometry analysis (reference value: 97.26%); assay type: functional; conditions: HN-6, 24 h, dose 0.1 µmol/L, read-out: Activity
[12] = Induction of apoptosis in human HN-6 cells assessed as necrotic cells at 1 micromol/L incubated for 24 hrs by Annexin-V/FITC-PI staining based flow cytometry analysis (reference value: 2.08%); assay type: functional; conditions: dose 1 µmol/L, at 1 µM
[13] = system: HN-6; assay: Antitumor activity against human HN-6 cells xenografted in mouse assessed as reduction on tumor growth at 80 mg/kg,IG administered daily for 2 weeks; assay type: functional, organism-based
[14] = Acute toxicity in Kunming mouse assessed as adverse effect at 251 mg/kg,IG after 15 days of administration; assay type: organism-based; conditions: in vivo, po, 360 h, time 15 day
[15] = AUC (0 to t) in rat at 100 mg/kg,IG measured upto 24 hrs by HPLC analysis; assay type: ADME, organism-based; design: dose 100 mg/kg, time < 24 hrs, route ig; conditions: in vivo, po
[16] = system: CAL-27; assay: Antiproliferative activity against human CAL-27 cells assessed as cell growth inhibition incubated for 72 hrs by CCK-8 assay; assay type: functional, cell-based; conditions: CAL-27, 72 h
[17] = Tmax in rat at 100 mg/kg,IG measured upto 24 hrs by HPLC analysis; assay type: ADME, organism-based; conditions: in vivo, po
[18] = Cytotoxicity against human HFF-1 clls assessed as reduction in cell viability incubated for 72 hrs by CCK-8 assay; assay type: toxicity, cell-based; conditions: HFF-1 cells
[19] = system: HN-6; assay: Inhibition of cell invasion in human HN-6 cells at 200 to 500 nmol/L incubated for 24 hrs by crystal violet staining based transwell assay; assay type: functional; conditions: dose 200-500 nmol/L
[20] = molecular target: Tubulin; assay: Inhibition of tubulin polymerization (unknown origin) by fluorescence based analysis; assay type: protein-complex assay, Homo sapiens
[21] = Induction of apoptosis in human HN-6 cells assessed as late apoptotic cells at 0.1 micromol/L incubated for 24 hrs by Annexin-V/FITC-PI staining based flow cytometry analysis (reference value: 8.81%); assay type: functional; conditions: dose 0.1 µmol/L, at 0.1 µM
[22] = Cmax in rat at 100 mg/kg,IG measured upto 24 hrs by HPLC analysis; assay type: ADME, organism-based; design: dose 100 mg/kg, time < 24 hrs, route ig; conditions: in vivo, po
[23] = Acute toxicity in Kunming mouse assessed as weakness at 1 g/Kg,IG after 2 hrs of administration; conditions: in vivo, po, 1000 mg/kg
[24] = Antiproliferative activity against human HN-6 cells assessed as cell growth inhibition incubated for 72 hrs by CCK-8 assay; assay type: functional, cell-based; conditions: HN-6, 72 h
[25] = Acute toxicity in IG dosed Kunming mouse assessed as lethal dose after 15 days of administration; assay type: organism-based; conditions: in vivo, po, time 15 day
[26] = Acute toxicity in Kunming mouse assessed as change in body weight at 251 mg/kg,IG after 15 days of administration; assay type: organism-based; conditions: in vivo, po, 360 h, time 15 day
[27] = Acute toxicity in Kunming mouse assessed as change in body weight at 158 mg/kg,IG after 15 days of administration; assay type: organism-based; conditions: in vivo, po, 360 h, time 15 day
[28] = Induction of cell cycle arrest in human HN-6 cells assessed as accumulation of cells at S phase at 0.1 micromol/L incubated for 24 hrs by PI staining based flow cytometry analysi (reference value: 32.12%); assay type: functional; conditions: dose 0.1 µmol/L, at 0.1 µM
[29] = Induction of apoptosis in human HN-6 cells assessed as early apoptotic cells at 0.1 micromol/L incubated for 24 hrs by Annexin-V/FITC-PI staining based flow cytometry analysis (reference value: 2.04%); assay type: functional; conditions: dose 0.1 µmol/L, at 0.1 µM
[30] = Acute toxicity in Kunming mouse assessed as hypothermia at 1 g/Kg,IG after 2 hrs of administration; conditions: in vivo, po, 1000 mg/kg
[31] = Acute toxicity in Kunming mouse assessed as hypothermia at 631 mg/kg,IG after 6 hrs of administration; assay type: organism-based; conditions: in vivo, po
[32] = Acute toxicity in Kunming mouse assessed as adverse effect at 158 mg/kg,IG after 15 days of administration; assay type: organism-based; conditions: in vivo, po, 360 h, time 15 day
[33] = Induction of cell cycle arrest in human HN-6 cells assessed as accumulation of cells at S phase at 0.1 micromol/L incubated for 24 hrs by PI staining based flow cytometry analysi (reference value: 31.19%); assay type: functional; conditions: dose 0.1 µmol/L, at 0.1 µM
[34] = Acute toxicity in mouse xenografted with human HN-6 cells assessed as body weight loss at 80 mg/kg,IG administered daily for 2 weeks; assay type: organism-based; conditions: in vivo, po, 336 h
[35] = system: Mus musculus; assay: Antitumor activity against human HN-6 cells xenografted in mouse serum assessed as reduction on TPS level at 80 mg/kg,IG administered daily for 2 weeks by ELISA; assay type: functional, organism-based
[36] = system: Mus musculus; assay: Antitumor activity against human HN-6 cells xenografted in mouse serum assessed as reduction on CYFRA21-1 level at 80 mg/kg,IG administered daily for 2 weeks by ELISA; assay type: functional, organism-based
[37] = system: FaDu; assay: Antiproliferative activity against human FaDu cells assessed as cell growth inhibition incubated for 72 hrs by CCK-8 assay; assay type: functional, cell-based; conditions: read-out: IC50
[38] = system: HN-6; assay: Induction of cell morphological changes in human HN-6 cells assessed as decrease in tubulin network around nucleus at 100 nmol/L incubated for 24 hrs by DAPI staining based confocal microscopy analysis; assay type: functional
[39] = Antimigratory activity in human HN-6 cells assessed as inhibition of cell migration at 0.1 micromol/L measured after 24 hrs by scratch wound assay based fluorescence microscope analysis; assay type: functional; conditions: HN-6, 24 h, dose 0.1 µmol/L
[40] = Induction of apoptosis in human HN-6 cells assessed as late apoptotic cells at 1 micromol/L incubated for 24 hrs by Annexin-V/FITC-PI staining based flow cytometry analysis (reference value: 8.81%); assay type: functional; conditions: dose 1 µmol/L, at 1 µM
[41] = Induction of cell cycle arrest in human HN-6 cells assessed as accumulation of cells at G1 phase at 0.1 micromol/L incubated for 24 hrs by PI staining based flow cytometry analysi (reference value: 45.33%); assay type: functional; conditions: dose 0.1 µmol/L, at 0.1 µM

CCCCc1ccc2nc(NC(=O)OC(C)C)[nH]c2c1
Activity [1]: 5.01%
Activity [2]: 16.44%
Activity [3]: Toxic
half-life [4]: 1.95 h
Activity [5]: Toxic
inhibition [6]: 98.9%
Activity [7]: Toxic
viability at 1 µM [8]: 52.6%
Activity [9]: Toxic
Activity [10]: Active
viability at 0.1 µM [11]: 62.9%
Activity [12]: 6.23%
Activity [13]: Active
Activity [14]: Non-Toxic
AUC(0-t) at 24 h [15]: 542 ng·h/mL
IC50 [16]: 93.1 nM
Tmax [17]: 2 h
IC50 at 72 h [18]: > 20000 nM
inhibition [19]: Active
IC50 [20]: 4040 nM
Activity [21]: 20.59%
Cmax [22]: 169 ng/mL
Activity [23]: Toxic
IC50 [24]: 34.9 nM
LD50 at 360 h [25]: 341 mg/kg
Activity [26]: Non-Toxic
Activity [27]: Non-Toxic
Activity [28]: 16.16%
Activity [29]: 11.53%
Activity [30]: Toxic
Activity [31]: Toxic
Activity [32]: Non-Toxic
Activity [33]: 68.08%
Activity [34]: Non-Toxic
Activity [35]: Active
Activity [36]: Active
IC50 [37]: 126 nM
Activity [38]: Active
inhibition at 0.1 µM [39]: 6.27%
Activity [40]: 24.75%
Activity [41]: 14.26%
